The values that follow are results of earlier work, collected in PMC9916978, “Enantioselective Human Serum Albumin Binding of Apremilast: Liquid Chromatographic, Fluorescence and Molecular Docking Study” (International Journal of Molecular Sciences, 2023).

Among the test systems are mouse plasma; rat plasma; rabbit plasma; monkey plasma; human plasma.
What all share (design): method as in earlier work
Settings in all cases: 0.25 to 2.5 μg/mL; cited from earlier work

As to `CCOc1cc([C@@H](CS(C)(=O)=O)N2C(=O)c3cccc(NC(C)=O)c3C2=O)ccc1OC` [APR, apremilast], the “overall mean percent bound” value is on record as 88.6% in the data set with mouse plasma; 90.6% with rat plasma; 80.9% in the data set with rabbit plasma; 84.3% in the data set on monkey plasma; 68.3% in the data set on human plasma.
